Reference: patent publication US12527849B2, “Apparatus for determining administration form of a composition of an engineered virus-based nanoparticle for a treatment of an autoimmune condition” (Diamante Srl, priority 2021, dated 2026)

Test system: IL-17A
Assay: Cytokine ELISA in CIA mice, day 60: IL-17A
Type: in vivo
Source text: With continued reference to FIG. 1, in some embodiments, administration 116 may be done to an animal. As a non-limiting example, the animal may include a mouse, a fish, a rabbit, human, and the like. As a non-limiting example, administration 116 of composition of the engineered virus-based nanoparticle for a treatment of an autoimmune condition may be done to dilute, brown, and non-agouti (DBA) mice based on their susceptibility to collagen-induced arthritis (CIA). Female DBA/1 mice 6 to 8 weeks of age may be maintained under specific pathogen-free conditions. CIA may be induced by the intradermal tail base injection of 100 μg of chicken type II collagen (Sigma-Aldrich) as previously described. Five mice per group may be immunized on days 0 and 21 to induce arthritis. The onset of disease may be confirmed on the day that swelling or erythema may be observed in any paw, typically 4 to 10 days after the second immunization. […] CIA may be assessed using a macroscopic score system based on the visual identification of arthritic limbs. The clinical severity of arthritis may be evaluated as follows: Each mouse may be inspected every 2 to 3 days for three different parameters: (i) swelling of the hind ankle and foot, measured with calipers; (ii) erythema of each leg; and (iii) swelling of the fingers. The RA index for each mouse was expressed as the mean of the three scores from the individual parameters. At the end of the experiment (60 days), we determined the proportion of CD25+Foxp3+ cells in the lymph nodes and measured cytokine titers in the lymph nodes, joints, and serum.
With continued reference to FIG. 1, in some embodiments, processor 104 may determine critical administration 124 as a function of a cytokine profile and a proportion of CD25^+ Foxp3^+ cells. […] In some embodiments, to quantify cytokines in DBA mice, joint tissues may be pulverized and resuspended in 1 ml of lysis medium per 100-mg joint weight for 60 min at 37′C, followed by centrifugation to remove debris. […]

## C[C@@H]1C[C@H]2[C@@H]3CCC4=CC(=O)C=C[C@]4(C)[C@@]3(F)[C@@H](O)C[C@]2(C)[C@@]1(O)C(=O)CO [Dexamethasone, dexamethasone]
Joint supernatant, CIA mice, day 60, mean n=3
  IL-17A J: 1219.43 pg/mL
Lymph node supernatant, CIA mice, day 60, mean n=3
  IL-17A LN: 1540.40 pg/mL
Serum pooled from five CIA mice, day 60
  IL-17A S: 313.8 pg/mL
